Laboratory results as given in ChEMBL document CHEMBL4373717, “Coumarin-containing hybrids and their anticancer activities” (Eur J Med Chem, 2019).
pIC50: −log10 of the molar value. Values after ≈ are worked out from the molar mass of the structure shown. Each block holds one compound with its values, some of them ahead of it.

How the values were obtained:
BXPC-3 = experiment: Growth inhibition of human BxPC3 cells; format: functional
MCF7 [1] = experiment: Growth inhibition of human MCF7 cells; format: functional
SN12C = experiment: Growth inhibition of human SN12C cells; format: functional
OVCAR-8 = experiment: Growth inhibition of human OVCAR8 cells; format: functional
AGS = experiment: Growth inhibition of human AGS cells; format: functional
PANC-1 = experiment: Growth inhibition of human PANC1 cells; format: functional
K562 [2] = experiment: Growth inhibition of human K562 cells; format: functional
WiDr = experiment: Growth inhibition of human WiDr cells; format: functional
[3] = Growth inhibition of human KATO III cells; format: functional
T-24 = experiment: Growth inhibition of human T24 cells; format: functional
SNU1 = experiment: Growth inhibition of human SNU1 cells; format: functional
HepG2 [4] = experiment: Growth inhibition of human HepG2 cells; format: functional
SK-OV-3 = experiment: Growth inhibition of human SKOV3 cells; format: functional
MCF7 [5] = experiment: Cytotoxicity against human MCF7 cells assessed as reduction in cell viability after 48 hrs by MTT assay; format: functional, cell-based; settings: MCF7, 48 h
HepG2 [6] = experiment: Cytotoxicity against human HepG2 cells assessed as reduction in cell viability after 48 hrs by MTT assay; format: functional, cell-based; settings: HepG2, 48 h
MDA-MB-231 [7] = experiment: Potency index, ratio of doxorubicin IC50 to compound IC50 for cytotoxicity against human MDA-MB-231 cells in normoxic condition; format: functional
MDA-MB-231 [8] = experiment: Potency index, ratio of doxorubicin IC50 to compound IC50 for cytotoxicity against human MDA-MB-231 cells in hypoxic condition; format: functional
MDA-MB-231 [9] = experiment: Potency index, ratio of cisplatin IC50 to compound IC50 for cytotoxicity against human MDA-MB-231 cells in normoxic condition; format: functional
MDA-MB-231 [10] = experiment: Cytotoxicity against human MDA-MB-231 cells assessed as reduction in cell viability after 24 hrs by MTT assay; format: functional, cell-based
MDA-MB-231 [11] = experiment: Potency index, ratio of cisplatin IC50 to compound IC50 for cytotoxicity against human MDA-MB-231 cells in hypoxic condition; format: functional
DLD-1 = experiment: Cytotoxicity against human DLD1 cells assessed as reduction in cell viability; format: functional, cell-based
MCF7 [12] = experiment: Cytotoxicity against human MCF7 cells assessed as reduction in cell viability; format: functional, cell-based
[13] = molecular target: Vascular endothelial growth factor receptor 2 (Homo sapiens, UniProt P35968); experiment: Inhibition of VEGFR2 (unknown origin)
NCI-H1650 = experiment: Growth inhibition of human NCI-H1650 cells; format: functional
NCI-H460 [14] = experiment: Growth inhibition of human H460 cells; format: functional
A549 [15] = experiment: Growth inhibition of human A549 cells; format: functional
OVCAR-4 = experiment: Anticancer activity against human OVCAR4 cells; format: functional
SNB-75 = experiment: Anticancer activity against human SNB75 cells; format: functional
NCI-H460 [16] = experiment: Growth inhibition of human NCI-H460 cells; format: functional
NCI-H460 [17] = experiment: Potency index, ratio of doxorubicin GI50 to compound GI50 for growth inhibition of human NCI-H460 cells; format: functional
SF-268 [18] = experiment: Potency index, ratio of doxorubicin GI50 to compound GI50 for growth inhibition of human SF268 cells; format: functional
SF-268 [19] = experiment: Growth inhibition of human SF268 cells; format: functional
MCF7 [20] = experiment: Potency index, ratio of doxorubicin GI50 to compound GI50 for growth inhibition of human MCF7 cells; format: functional
HeLa [21] = experiment: Anticancer activity against human HeLa cells by MTT assay; format: functional, cell-based
A549 [22] = experiment: Anticancer activity against human A549 cells by MTT assay; format: functional, cell-based
HeLa [23] = experiment: Potency index, ratio of doxorubicin IC50 to compound IC50 for anticancer activity against human HeLa cells; format: functional
MDA-MB-231 [24] = experiment: Anticancer activity against human MDA-MB-231 cells by MTT assay; format: functional, cell-based
K562 [25] = experiment: Anticancer activity against human K562 cells by MTT assay; format: functional, cell-based
K562 [26] = experiment: Potency index, ratio of doxorubicin IC50 to compound IC50 for anticancer activity against human K562 cells; format: functional
A549 [27] = experiment: Potency index, ratio of doxorubicin IC50 to compound IC50 for anticancer activity against human A549 cells; format: functional
MDA-MB-231 [28] = experiment: Potency index, ratio of doxorubicin IC50 to compound IC50 for anticancer activity against human MDA-MB-231 cells; format: functional
L02 = experiment: Cytotoxicity against human L02 cells assessed as reduction in cell viability after 24 hrs by MTT assay; format: cell-based; settings: L02, 24 h
A549 [29] = experiment: Cytotoxicity against human A549 cells assessed as reduction in cell viability after 24 hrs by MTT assay; format: functional, cell-based; settings: A549, 24 h
HeLa [30] = experiment: Cytotoxicity against human HeLa cells assessed as reduction in cell viability after 24 hrs by MTT assay; format: functional, cell-based
HEK-293T = experiment: Cytotoxicity against HEK293T cells assessed as reduction in cell viability after 24 hrs by MTT assay; format: cell-based; settings: Homo sapiens
MCF7 [31] = experiment: Cytotoxicity against human MCF7 cells assessed as reduction in cell viability after 24 hrs by MTT assay; format: functional, cell-based; settings: MCF7, 24 h
K562 [32] = experiment: Potency index, ratio of cisplatin IC50 to compound IC50 for antiproliferative activity against human K562 cells; format: functional
K562 [33] = experiment: Antiproliferative activity against human K562 cells after 48 hrs by MTT assay; format: functional, cell-based; settings: K562, 48 h
MCF7 [34] = experiment: Potency index, ratio of cisplatin IC50 to compound IC50 for antiproliferative activity against human MCF7 cells; format: functional
MCF7 [35] = experiment: Antiproliferative activity against human MCF7 cells after 48 hrs by MTT assay; format: functional, cell-based; settings: MCF7, 48 h
A549 [36] = experiment: Potency index, ratio of cisplatin IC50 to compound IC50 for antiproliferative activity against human A549 cells; format: functional
A549 [37] = experiment: Antiproliferative activity against human A549 cells after 48 hrs by MTT assay; format: functional, cell-based; settings: A549, 48 h

Vascular endothelial growth factor receptor 2, sequence (P35968 whole entry): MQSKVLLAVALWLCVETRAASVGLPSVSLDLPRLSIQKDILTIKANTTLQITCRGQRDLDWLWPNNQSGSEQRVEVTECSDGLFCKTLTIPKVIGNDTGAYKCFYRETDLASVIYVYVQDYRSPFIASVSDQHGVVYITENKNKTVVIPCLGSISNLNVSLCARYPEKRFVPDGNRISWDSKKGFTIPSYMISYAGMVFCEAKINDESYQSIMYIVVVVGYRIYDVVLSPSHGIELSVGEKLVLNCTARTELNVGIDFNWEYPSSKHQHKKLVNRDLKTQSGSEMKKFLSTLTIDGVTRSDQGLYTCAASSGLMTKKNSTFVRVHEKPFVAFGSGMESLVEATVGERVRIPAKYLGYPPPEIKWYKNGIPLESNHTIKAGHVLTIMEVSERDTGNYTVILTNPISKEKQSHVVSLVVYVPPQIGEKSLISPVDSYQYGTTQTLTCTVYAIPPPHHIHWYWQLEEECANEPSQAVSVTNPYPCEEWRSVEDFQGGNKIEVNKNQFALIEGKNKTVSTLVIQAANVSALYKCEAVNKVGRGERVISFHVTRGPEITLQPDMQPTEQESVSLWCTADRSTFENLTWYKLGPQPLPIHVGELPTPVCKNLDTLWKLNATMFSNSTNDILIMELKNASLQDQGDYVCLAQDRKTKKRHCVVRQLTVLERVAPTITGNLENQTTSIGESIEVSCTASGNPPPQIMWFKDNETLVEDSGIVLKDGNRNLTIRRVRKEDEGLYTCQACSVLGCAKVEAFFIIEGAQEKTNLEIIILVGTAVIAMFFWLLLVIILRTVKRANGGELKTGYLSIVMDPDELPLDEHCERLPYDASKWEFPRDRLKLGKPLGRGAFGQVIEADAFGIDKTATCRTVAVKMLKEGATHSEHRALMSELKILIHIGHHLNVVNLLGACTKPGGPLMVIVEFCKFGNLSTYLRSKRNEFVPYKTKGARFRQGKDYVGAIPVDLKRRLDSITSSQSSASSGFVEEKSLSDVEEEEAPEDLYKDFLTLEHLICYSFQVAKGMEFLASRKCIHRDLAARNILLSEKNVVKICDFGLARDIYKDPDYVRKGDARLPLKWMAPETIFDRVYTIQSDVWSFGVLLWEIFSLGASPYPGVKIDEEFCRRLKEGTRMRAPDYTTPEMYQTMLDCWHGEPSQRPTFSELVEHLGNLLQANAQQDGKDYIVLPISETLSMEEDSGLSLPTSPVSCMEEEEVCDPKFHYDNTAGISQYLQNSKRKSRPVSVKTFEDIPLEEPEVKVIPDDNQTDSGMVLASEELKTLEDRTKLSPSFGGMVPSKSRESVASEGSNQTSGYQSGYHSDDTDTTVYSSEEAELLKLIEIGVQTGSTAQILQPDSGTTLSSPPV

SMILES: Cc1cc(-c2cc3cc(Cl)ccc3oc2=O)n(-c2nc(-c3ccc(Cl)cc3)cs2)n1
pIC50 (MCF7 [5]): 4.50 to 5.39 | pIC50 (HepG2 [6]): 5.43 to 5.51

SMILES: COc1ccc(-c2csc(-n3nc(C)cc3-c3cc4cc(Cl)ccc4oc3=O)n2)cc1
pIC50 (MCF7 [5]): 4.50 to 5.39 | pIC50 (HepG2 [6]): 5.43 to 5.51

SMILES: COc1ccc(NC(=O)c2ccc(-n3cc(COc4cc(=O)oc5ccccc45)nn3)cc2)cc1OC
Ratio IC50 (MDA-MB-231 [7]): 20 - 156 | Ratio IC50 (MDA-MB-231 [8]): 20 - 156 | Ratio IC50 (MDA-MB-231 [9]): 20 - 156 | pIC50 (MDA-MB-231 [10]; mda-mb-231): 4.04 to 7.52 | Ratio IC50 (MDA-MB-231 [11]): 20 - 156

SMILES: Cc1ccc(/N=N/c2sc(N3N=C(c4c(O)c5ccccc5oc4=O)CC3c3ccc(N(C)C)cc3)nc2-c2ccccc2)cc1 (stereo unspecified)
pIC50 (DLD-1): 3.89 to 3.94 | pIC50 (MCF7 [12]): 5.18 to 5.27 | pIC50 [13]: 6.24 to 7.47

SMILES: COc1ccc(C(=O)CC(c2c(O)c3ccccc3oc2=O)c2c(O)c3ccccc3oc2=O)c(O)c1
GI50 (NCI-H1650): 50.1 µM | GI50 (NCI-H460 [14]): 35.7 µM | GI50 (A549 [15]): 33.3 µM

SMILES: Nc1ccc2c(-c3nc4ccc(Br)c(O)c4s3)cc(=O)oc2c1
GI50 (OVCAR-4): 0.33 µM | GI50 (SNB-75): 0.24 µM

SMILES: Cc1cc(-c2cc3ccccc3oc2=O)n(-c2nc(-c3ccc(Cl)cc3)cs2)n1
pIC50 (MCF7 [5]): 4.50 to 5.39 | pIC50 (HepG2 [6]): 5.43 to 5.51

SMILES: CC(C)=CC[C@@H](OCc1ccc(C(=O)/N=C/c2c(Cl)c3ccccc3oc2=O)cc1)C1=CC(=O)c2c(O)ccc(O)c2C1=O
pIC50 (L02): 4.98 to 5.49 | pIC50 (A549 [29]): 4.98 to 5.49 | pIC50 (HeLa [30]): 4.98 to 5.49 | pIC50 (HEK-293T): 4.98 to 5.49 | pIC50 (MCF7 [31]): 4.98 to 5.49 | pIC50 (MDA-MB-231 [10]; Homo sapiens, MDA-MB-231, 24 h): 4.98 to 5.49

SMILES: CCN(CC)CCOc1ccc(-c2c(-c3ccc(NC(=O)CCCCCCCCC(=O)Nc4ccc(-c5c(-c6ccc(OCCN(CC)CC)cc6)c6ccc(OCCN(CC)CC)cc6oc5=O)cc4)cc3)c(=O)oc3cc(OCCN(CC)CC)ccc23)cc1
Ratio IC50 (K562 [32]): 2.4 - 8.3 | pIC50 (K562 [33]): 5.43 to 6.00 | Ratio IC50 (MCF7 [34]): 2.4 - 8.3 | pIC50 (MCF7 [35]): 5.43 to 6.00 | Ratio IC50 (A549 [36]): 2.4 - 8.3 | pIC50 (A549 [37]): 5.43 to 6.00

More lines, main results first:

GI50 (BXPC-3): 0.07 to 0.41 µM | GI50 (MCF7 [1]): 0.07 to 0.41 µM | GI50 (OVCAR-8): 0.07 to 0.41 µM | GI50 (AGS): 0.07 to 0.41 µM | GI50 (PANC-1): 0.07 to 0.41 µM | GI50 (K562 [2]): 0.07 to 0.41 µM | GI50 (SNU1): 0.07 to 0.41 µM | GI50 (HepG2 [4]): 0.07 to 0.41 µM | GI50 (SK-OV-3): 0.07 to 0.41 µM
SMILES: CCN(CC)c1ccc2cc(-c3nc4ccccc4n3C)c(=O)oc2c1
GI50 (SN12C): 0.07 to 0.41 µM | GI50 (WiDr): 0.07 to 0.41 µM | GI50 [3]: 0.07 to 0.41 µM | GI50 (T-24): 0.07 to 0.41 µM

GI50 (MCF7 [1]): 0.05 to 0.08 µM | GI50 (NCI-H460 [16]): 0.05 to 0.08 µM
SMILES: O=c1oc2ccccc2cc1-c1nc2ccccc2n1C(=S)Nc1ccccc1
RatioGI50 (NCI-H460 [17]): 1.5 - 2 | RatioGI50 (SF-268 [18]): 1.5 - 2 | GI50 (SF-268 [19]): 0.05 to 0.08 µM | RatioGI50 (MCF7 [20]): 1.5 - 2

IC50 (HeLa [21]): 0.16 to 0.31 mg/L (≈ 0.287 to 0.556 µM) | IC50 (A549 [22]): 0.16 to 0.31 mg/L (≈ 0.287 to 0.556 µM) | IC50 (MDA-MB-231 [24]): 0.16 to 0.31 mg/L (≈ 0.287 to 0.556 µM) | IC50 (K562 [25]): 0.16 to 0.31 mg/L (≈ 0.287 to 0.556 µM)
SMILES: COc1ccc(-n2nc(C)n(-n3c(-c4cc5ccccc5oc4=O)cs/c3=N\c3ccc(Cl)cc3)c2=O)cc1
Ratio IC50 (HeLa [23]): 1.9 - 3.3 | Ratio IC50 (K562 [26]): 1.9 - 3.3 | Ratio IC50 (A549 [27]): 1.9 - 3.3 | Ratio IC50 (MDA-MB-231 [28]): 1.9 - 3.3

pIC50 [13]: 6.24 to 7.47
SMILES: CN(C)c1ccc(C2CC(c3cc4ccccc4oc3=O)=NN2c2nc(-c3ccccc3)c(/N=N/c3ccc(Cl)cc3)s2)cc1 (stereo unspecified)
pIC50 (DLD-1): 3.89 to 3.94 | pIC50 (MCF7 [12]): 5.18 to 5.27
